Experiments:
Format in all cases: cell-based, human
Jurkat cells = experiment: Detection of mitodamage: mitochondrial membrane potential and apoptosis (MitoSense Red, annexin V, 7-AAD); conditions: compound at CC50, 4 h
Source text: The use of reagents MitoSense Red, annexin V, and 7-AAD in the Millipore FlowCellect™ MitoDamage Kit allowed us to gain information on early, mid, and late apoptosis with one simple assay. […] After this time, the cells were dissociated using an accutase solution, stained, and analyzed using the NovoCyte Penteon Flow Cytometer System (Agilent, 5301 Stevens Creek Blvd., Santa Clara, CA, USA), according to the manufacturer’s protocols for the FlowCellect™ MitoDamage Kit and FlowCellect™ Oxidative Stress Characterization Kit (Merck).
Detection of mitochondrial potential dissipation using MitoSense Red, annexin V, and 7-AAD provided a simultaneous measurement of three important parameters of the cell state within the same cell sample: the state of the mitochondrial potential (Δψ), detected by the membrane-penetrating MitoSense Red dye; the expression of phosphatidylserine on the cell surface of apoptotic cells, assessed by the binding of annexin V to externalized phosphatidylserine; and the binding of 7-AAD to DNA in cells in the late stages of apoptosis. Multiparametric evaluation of these indicators of cell viability made it possible to determine the correlation and relationship between oxidation dissipation and phosphorylation with apoptosis.

K562 = experiment: Cytotoxicity assay (7-AAD viability, flow cytometry); conditions: Homo sapiens, ± standard error of the mean, 95% CI in parenthesis
Source text: (§1) Cells, including Jurkat E6.1 (human leukemic T cell lymphoblasts, catalogue no. 88042803), K562 (human chronic myelogenous leukemia cells, catalogue no. 89121407), U937 (human histiocytic lymphoma cells, catalogue no. 85011440), HL60 (human promyelocytic leukemia cells, catalog no. 98070106), HEK293 (human embryonic kidney cells with adenovirus, catalog no. 85120602), and human lung fibroblasts Ce (catalogue no. 90011883), were purchased from the European Collection of Authenticated Cell Cultures (UK Health Security Agency) and cultured according to standard protocols using sterile techniques. […] Cells were maintained in RPMI 1640 (Jurkat, K562, U937, and HL60) and DME M (fibroblast and HEK293) (Gibco) supplemented with […] glutamine, 10% FBS (Sigma), and 100 units/mL penicillin-streptomycin (Sigma). All types of cells were grown under an atmosphere of 5% CO2 at 37 °C. The cells were subcultured at 2–3-day intervals. Cells were then seeded in 24-well plates at 5 × 10^4 cells per well and incubated overnight. Jurkat, K562, U937, HL60, HEK293, and fibroblast cells were subcultured at 2-day intervals with a seeding density of 1 × 10^5 cells per well in 24-well plates in RPMI with 10% FBS.
(§2) Viability (live/dead) assessment was performed by staining cells with 7-AAD (7-aminoactinomycin D; Biolegend). After treatment, cells were harvested, washed 1–2 times with phosphate-buffered saline (PBS), and centrifuged at 400× g for 5 min. Cell pellets were resuspended in 200 µL of flow cytometry staining buffer (PBS without Ca^2+ and Mg^2+, 2.5% FBS) and stained with […] of 7-AAD staining solution for 15 min at room temperature in the dark. Samples were assessed using the NovoCyte Penteon Flow Cytometer System (Agilent, 5301 Stevens Creek Blvd., Santa Clara, CA, USA). Detection of 7-AAD emission was collected through a 675/30 nm filter in the FL4 channel.

HL60 = experiment: as above; conditions: Homo sapiens, HL-60, ± standard error of the mean, 95% CI in parenthesis
Source text: as §1, §2

Jurkat = experiment: as above; conditions: Homo sapiens, ± standard error of the mean, 95% CI in parenthesis
Source text: as §1, §2

[1] = as above; conditions: human; Hek293, conditionally normal line; ± standard error of the mean, 95% CI in parenthesis
Source text: as §1, §2

U937 = experiment: as above; conditions: Homo sapiens, U-937, ± standard error of the mean, 95% CI in parenthesis
Source text: as §1, §2

Structure (SMILES): CCCCCCCCCC/C=C\CC/C=C\CC/C=C\CCCCCCCCCCC1=C[C@H](C)OC1=O [compound 1, chatenaytrienin-1]
- cells in late apoptosis (stained with 7-AAD) (Jurkat cells; Jurkat): 15.11%
- Jurkat tumor cells with the Δψ dissipation phenomenon (Jurkat cells; MitoSense Red): 83.69%
- CC50 (K562): 100 ± 30 nM
- CC50 (HL60): 150 ± 10 nM
- CC50 (Jurkat): 90 ± 20 nM
- CC50 [1]: 530 ± 20 nM
- CC50 (U937): 90 ± 20 nM
